Starred links: 1 amine or outer side, 2 acyl side, 3 side chain; linkers in the order of their positions; H or OH if unused. Positions of bridges follow the written chain, without caps; N, C: chain ends. Non-standard residues stand in square brackets, D forms with d. Residues, ends and D or L forms follow the SMILES beside them. Phe(4-COOH) = N[C@@H](Cc1ccc(C(=O)O)cc1)C(=O)O; Trp(5-F) = N[C@@H](Cc1c[nH]c2ccc(F)cc12)C(=O)O; Trp(6-F) = N[C@@H](Cc1c[nH]c2cc(F)ccc12)C(=O)O; Trp(1-Me) = Cn1cc(C[C@H](N)C(=O)O)c2ccccc21; dPro(cis-4-NH2) = N[C@H]1CN[C@@H](C(=O)O)C1; Asp(3,3-Me2) = CC(C)(C(=O)O)[C@H](N)C(=O)O; Lys(N3) = [N-]=[N+]=NCCCC[C@H](N)C(=O)O; X4 = O=C(CCSCc1cccc(CSCCN[*:1])c1)[*:2]; 2Nal = N[C@@H](Cc1ccc2ccccc2c1)C(=O)O; TBMB = c1c(C[*:1])cc(C[*:3])cc1C[*:2]; mXylylene = c1cc(C[*:1])cc(C[*:2])c1; AEF = NCCOc1ccc(C[C@H](N)C(=O)O)cc1; NMeY = CN[C@@H](Cc1ccc(O)cc1)C(=O)O; Glutaryl = O=C(CCCC(=O)[*:2])[*:1]; X21 = O=C(Cc1cccc(CN[*:2])c1)[*:1]; X39 = c1cc(CCSCN[*:2])cc(C[*:1])c1; NMeT = CN[C@H](C(=O)O)[C@@H](C)O; Aad = N[C@@H](CCCC(=O)O)C(=O)O; dNMeL = CN[C@H](CC(C)C)C(=O)O; αMeP = C[C@@]1(C(=O)O)CCCN1; Nva = CCC[C@H](N)C(=O)O; Ahx = NCCCCCC(=O)O; Mpa = O=C(O)CCS
Tests used:
[1] = target: human PCSK9 / human LDLR EGFa domain interaction (Homo sapiens (Human), UniProt Q8NBP7); test: TR-FRET assay of inhibition of the PCSK9-LDLR protein-protein interaction; assay type: binding; conditions: TR-FRET, 20 nM human PCSK9, 20 nM human LDLR EGFa domain, 2 hours room temperature; read-out: IC50
Sequence of human PCSK9 / human LDLR EGFa domain interaction (Q8NBP7 153-692): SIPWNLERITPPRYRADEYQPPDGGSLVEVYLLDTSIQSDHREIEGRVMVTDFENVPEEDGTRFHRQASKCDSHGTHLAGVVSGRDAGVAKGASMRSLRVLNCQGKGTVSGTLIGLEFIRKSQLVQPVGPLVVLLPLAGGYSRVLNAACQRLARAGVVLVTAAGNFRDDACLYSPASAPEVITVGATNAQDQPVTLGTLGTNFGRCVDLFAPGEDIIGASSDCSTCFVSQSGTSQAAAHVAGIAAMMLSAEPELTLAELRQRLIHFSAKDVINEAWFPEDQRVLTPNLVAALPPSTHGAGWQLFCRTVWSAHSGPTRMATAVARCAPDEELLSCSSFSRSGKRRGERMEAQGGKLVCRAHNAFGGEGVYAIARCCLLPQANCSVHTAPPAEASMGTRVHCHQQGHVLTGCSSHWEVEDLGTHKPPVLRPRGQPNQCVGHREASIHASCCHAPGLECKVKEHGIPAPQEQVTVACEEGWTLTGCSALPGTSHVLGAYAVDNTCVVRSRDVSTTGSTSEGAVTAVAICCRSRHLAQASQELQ
Sequence of human PCSK9 / human LDLR EGFa domain interaction (Q8NBP7 31-152 partner): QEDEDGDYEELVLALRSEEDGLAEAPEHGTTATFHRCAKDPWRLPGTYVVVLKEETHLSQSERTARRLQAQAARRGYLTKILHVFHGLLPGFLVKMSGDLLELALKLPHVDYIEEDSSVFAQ
Method in brief: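 Avitag-biotinylated human PCSK9 (20 nM) and his-tagged human LDLR EGFa domain (20 nM) were incubated with 5 nM Ulight streptavidin and 5 nM europium anti-6×His for 2 h at room temperature. Buffer: 50 mM HEPES, 150 mM NaCl, 5 mM CaCl2, 0.01% BSA, 0.01% P20. IC50 from 4-parameter fit of dose-response.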

PCSK9 = PCSK9 (Homo sapiens (Human), UniProt Q8NBP7); test: PCSK9 Alexa FRET Standard assay (displacement of AlexaFluor647 tagged cyclic peptide Reagent A); assay type: binding; conditions: PCSK9 Alexa FRET Standard assay, 0.5 nM PCSK9, 20 nM AF cyclic peptide Reagent A; read-out: IC50
Sequence of PCSK9 (Q8NBP7 153-692): as the sequence (Q8NBP7 153-692) above
Method in brief: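 TR-FRET displacement: 0.5 nM biotinylated PCSK9 with 1.25 nM Strep-Eu and 20 nM AlexaFluor-tagged cyclic peptide (final) in 50 mM HEPES pH 7.4, 0.15 M NaCl, 5 mM CaCl2, 0.01% BSA, 0.01% P20, ≥2 h at room temperature. IC50 from sigmoidal fit, converted to Ki via peptide KD; falling Eu counts flagged false positives.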

Row | SMILES | IC50 [1] [µM] | IC50 (PCSK9) [µM]
1 | COc1ccc(C[C@@H]2NC(=O)[C@H](CCCC(=O)O)NC(=O)[C@H]3C[C@@H](N)CN3C(=O)[C@H](Cc3c[nH]c4ccc(F)cc34)NC(=O)[C@H](Cc3c[nH]c4ccc(F)cc34)NC(=O)[C@@H](C)NC(=O)[C@H](CCCCN=[N+]=[N-])NC(=O)CCSCc3cccc(c3)CCSCNC(=O)[C@]3(C)CCCN3C2=O)cc1 [Compound 408] ([Mpa][Lys(N3)][dA][Trp(5-F)][Trp(5-F)][dPro(cis-4-NH2)][Aad]Y(Me)[αMeP]; linker 1-C via X39) | 21 to 50 | 21 to 50
2 | C[C@@]12CCCN1C(=O)[C@H](Cc1ccc(O)cc1)NC(=O)[C@H](Cc1cnc[nH]1)NC(=O)[C@H](CC(=O)O)NC(=O)[C@H](Cc1c[nH]c3cc(F)ccc13)NC(=O)[C@H](Cc1c[nH]c3ccc(F)cc13)NC(=O)CNC(=O)CCCCCNC(=O)c1ccc(cc1)C[C@@H](C(N)=O)NC2=O [Compound 313] ([Ahx]G[Trp(5-F)][Trp(6-F)]DHY[αMeP][Phe(4-COOH)]-NH2; lactam N-9) | 1 to 12.1 | 1 to 12.1
3 | Cc1cc2cc(c1)CSC[C@@H](C(N)=O)NC(=O)[C@]1(C)CCCN1C(=O)[C@H](Cc1ccc(O)cc1)NC(=O)[C@H](Cc1c[nH]cn1)NC(=O)[C@H](CC(=O)O)NC(=O)[C@H](Cc1c[nH]c3ccc(F)cc13)NC(=O)[C@H](Cc1c[nH]c3ccc(F)cc13)NC(=O)CNC(=O)[C@H](CCCCN)NC(=O)CCSC2 [Compound 357] ([Mpa]KG[Trp(5-F)][Trp(5-F)]DHY[αMeP]C-NH2; linker 1-10 via TBMB) | 1 to 12.1 | 1 to 12.1
4 | C[C@H]1NC(=O)[C@H](CCCCN)NC(=O)CCSCc2cccc(c2)CSCCNC(=O)[C@]2(C)CCCN2C(=O)[C@H](Cc2ccc(O)cc2)N(C)C(=O)[C@H](Cc2c[nH]cn2)NC(=O)[C@H](C(C)(C)C(=O)O)NC(=O)[C@H](Cc2c[nH]c3ccc(F)cc23)NC(=O)[C@H](Cc2c[nH]c3ccc(F)cc23)NC1=O [Compound 383] (cyclo(H[NMeY][αMeP][X4]K[dA][Trp(5-F)][Trp(5-F)][Asp(3,3-Me2)])) | 0.0001 to 0.1 | 0.1 to 1
5 | COc1ccc(C[C@@H]2NC(=O)[C@H](Cc3cnc[nH]3)NC(=O)[C@H](CC(=O)O)NC(=O)[C@H](Cc3c[nH]c4ccc(F)cc34)NC(=O)[C@H](Cc3c[nH]c4ccc(F)cc34)NC(=O)[C@@H](C)NC(=O)[C@H](NC(C)=O)CCCCNC(=O)Cc3cccc(c3)CNC(=O)C[C@@H](C(N)=O)NC(=O)[C@]3(C)CCCN3C2=O)cc1 [Compound 394] (Ac-[dK][dA][Trp(5-F)][Trp(5-F)]DHY(Me)[αMeP]D-NH2; linker 1-9 via X21) | 0.1 to 1 | 0.1 to 1
6 | CCC[C@@H]1NC(=O)CCSCc2cccc(c2)CSC[C@@H](C(N)=O)NC(=O)[C@@H]2CCCN2C(=O)[C@H](Cc2ccc(OC)cc2)NC(=O)[C@H]([C@@H](C)OC)N(C)C(=O)[C@@H]2CCCN2C(=O)[C@H](Cc2cn(C)c3ccccc23)NC(=O)[C@H](Cc2ccc3ccccc3c2)NC(=O)[C@@H](CC(C)C)N(C)C1=O [Compound 046] ([Mpa][Nva][dNMeL][2Nal][Trp(1-Me)]P[NMeT](Me)Y(Me)PC-NH2; linker 1-10 via mXylylene) | 0.0001 to 0.1 | 0.00011 to 0.1
7 | COc1ccc(C[C@@H]2NC(=O)[C@H](Cc3cnc[nH]3)NC(=O)[C@H](CC(=O)O)NC(=O)[C@H](Cc3c[nH]c4ccc(F)cc34)NC(=O)[C@H](Cc3c[nH]c4ccc(F)cc34)NC(=O)[C@@H](C)NC(=O)CCCC(=O)NCCOc3ccc(cc3)C[C@@H](C(N)=O)NC(=O)[C@]3(C)CCCN3C2=O)cc1 [Compound 400] ([dA][Trp(5-F)][Trp(5-F)]DHY(Me)[αMeP][AEF]-NH2; linker N-8 via Glutaryl) | 0.1 to 1 | 1 to 12.1
8 | COc1ccc(C[C@@H]2NC(=O)[C@@H]3CCCCCCO[C@H]4C[C@@H](C(=O)N3)N(C4)C(=O)[C@H](Cc3c[nH]c4ccc(F)cc34)NC(=O)[C@H](Cc3c[nH]c4ccc(F)cc34)NC(=O)[C@@H](C)NC(=O)[C@H](CCCCN)NC(=O)CCSCc3cccc(c3)CSC[C@@H](C(N)=O)NC(=O)[C@]3(C)CCCN3C2=O)cc1 [Compound 506] | 0.1 to 1 | 0.1 to 1
9 | COc1ccc(C[C@@H]2NC(=O)[C@@H]3CCC/C=C\CO[C@H]4C[C@@H](C(=O)N3)N(C4)C(=O)[C@H](Cc3c[nH]c4ccc(F)cc34)NC(=O)[C@H](Cc3c[nH]c4ccc(F)cc34)NC(=O)[C@@H](C)NC(=O)[C@H](CCCCN)NC(=O)CCSCc3cccc(c3)CSC[C@@H](C(N)=O)NC(=O)[C@]3(C)CCCN3C2=O)cc1 [Compound 500] | 1 to 12.1 | 1 to 12.1

From patent US11530244B2, “Cyclic polypeptides for PCSK9 inhibition” (priority 2018, dated 2022)
